Literature values in paper PMC10712729, “A Phase I Trial of the Dual MET Kinase/OCT-2 Inhibitor OMO-1 in Metastatic Solid Malignancies Including MET Exon 14 Mutated Lung Cancer” (The Oncologist, 2023).

How the values were obtained:
[1] = in vivo; cited from earlier work
METex14 mutated NSCLC = tested on: METex14 mutated NSCLC; design: method as in PMID 32469185, PMID 32877583; settings: METex14 mutated NSCLC ref 9, 10; cited from earlier work
[2] = design: method as in PMID 32469185, PMID 32877583; settings: cited from earlier work

| Structure (SMILES) | renal toxicity [1] | median response duration (METex14 mutated NSCLC) | object response rates (METex14 mutated NSCLC) | diarrhea, all grades [2] | nausea, all grades [2] | vomiting, all grades [2] |
| --- | --- | --- | --- | --- | --- | --- |
| Cn1cc(-c2ccc3nnc(C(F)(F)c4ccc5ncccc5c4)n3n2)cn1 [JNJ-38877605] | renal toxic properties | – | – | – | – | – |
| CNC(=O)c1ccc(-c2cnc3ncc(Cc4ccc5ncccc5c4)n3n2)cc1F [capmatinib] | – | 12.6 months | 68% | 17% | 46% | 26% |
| CN1CCC(COc2cnc(-c3cccc(Cn4nc(-c5cccc(C#N)c5)ccc4=O)c3)nc2)CC1 [tepotinib] | – | 10.8 months | 43% | 22% | 26% | 6% |
